Our source for the IC50 and inhibition values is ChEMBL document CHEMBL3727346, “6-(pyridinyl)-4-pyrimidone derivates as tau protein kinase 1 inhibitors” (2011).

In assay [1] the target is Glycogen synthase kinase-3 beta splice variant X1 (Bos taurus, UniProt A0A059UE90). The assay can be described thus: (§1) Inhibition of bovine cerebral TPK1 assessed as reduction in P-GS1 phosphorylation using [32gammaP]ATP incubated for 2 hrs by liquid scintillation counting method.
Assay [2] has as its target Glycogen synthase kinase-3 beta splice variant X1 (Bos taurus) (UniProt A0A059UE90). Described as §1.

pIC50: −log10 of the molar value. Active and inactive are the calls of the source. How the calls were made is not given here.

As to `COc1ccc(NC(C)=O)cc1[C@H]1CN(c2nc(-c3ccncc3F)cc(=O)n2C)CCO1`, the negative logarithm of the IC50 (pIC50) in assay [1] was 9.32.
Same read-out and setting: the same measure for `Cn1c(N2CCN[C@@H](c3ccc(N4CCN(c5ccccc5)CC4)cc3)C2)nc(-c2ccncc2F)cc1=O`: 9.28; for `Cc1cc(C2CN(c3nc(-c4ccncc4F)cc(=O)n3C)CCO2)ccc1Br` (stereo not given): 9.29.
On the same count and under the same terms, as for `Cn1c(N2CCO[C@@H](c3ccc(N4CCC(N5CCCC5)CC4)cc3)C2)nc(-c2ccncc2F)cc1=O`, the figure is 8.77; as for `CC(=O)N1CCC(Oc2ccc([C@H]3CN(c4nc(-c5ccncc5F)cc(=O)n4C)CCO3)cc2)CC1`, 8.19; as for `CC(=O)Nc1cccc([C@H]2CN(c3nc(-c4ccncc4F)cc(=O)n3C)CCO2)c1`, 8.39.
Regarding `COC(=O)Nc1ccc([C@H]2CN(c3nc(-c4ccncc4F)cc(=O)n3C)CCO2)cc1`, in assay [1], the negative logarithm of the IC50 (pIC50) was 8.92.
Same read-out and setting: as for `Cn1c(N2CCN[C@@H](c3ccc(N4CCCCC4)cc3)C2)nc(-c2ccncc2F)cc1=O`, the figure is 8.43; as for `Cn1c(N2CCO[C@@H](c3ccc(OCCN4CCOCC4)cc3)C2)nc(-c2ccncc2F)cc1=O`, 8.96.
Same read-out and setting: as for `Cn1c(N2CCO[C@@H](c3ccc(C(=O)N4CCOCC4)cc3)C2)nc(-c2ccncc2F)cc1=O`, the figure is 8.13; as for `Cn1c(N2CCOC(c3ccc4c(c3)CCC(=O)N4)C2)nc(-c2ccncc2F)cc1=O` (racemic), 8.92.
On the same count and under the same terms, the same measure for `CN(c1ccc([C@H]2CN(c3nc(-c4ccncc4F)cc(=O)n3C)CCO2)cc1)c1ccccn1`: 8.27; for `Cn1c(N2CCO[C@@H](c3c(F)cccc3Cl)C2)nc(-c2ccncc2F)cc1=O`: 8.85.
For `CN(c1ccc([C@H]2CN(c3nc(-c4ccncc4F)cc(=O)n3C)CCO2)cc1)[C@@H]1CCOC1`, in assay [1], the pIC50 is 8.41.
Same read-out and setting: the same measure for `Cn1c(N2CCO[C@@H](c3ccc(NC(=O)C(C)(C)C)cc3)C2)nc(-c2ccncc2F)cc1=O`: 8.38; for `Cn1c(N2CCO[C@@H](c3cc4ccccc4o3)C2)nc(-c2ccncc2F)cc1=O`: 8.10; for `Cn1c(N2CCN[C@@H](c3ccc(-c4ncon4)cc3)C2)nc(-c2ccncc2F)cc1=O`: 8.32.
`Cn1c(N2CCO[C@@H](c3ccc(N[C@@H]4CCOC4)cc3)C2)nc(-c2ccncc2F)cc1=O`: the negative-log IC50 (pIC50) in assay [1] was 8.57.
Same read-out and setting: as for `Cn1c(N2CCO[C@@H](c3ccc(N)cc3)C2)nc(-c2ccncc2F)cc1=O`, the figure is 8.54; as for `CC(C)Oc1ccc(-c2ccc([C@H]3CN(c4nc(-c5ccncc5F)cc(=O)n4C)CCN3)cc2)cc1`, 8.92; as for `CN(C)CC(=O)Nc1ccc([C@H]2CN(c3nc(-c4ccncc4F)cc(=O)n3C)CCO2)cc1`, 9.57.
On the same count and under the same terms, as for `Cc1nc(-c2ccc([C@H]3CN(c4nc(-c5ccncc5F)cc(=O)n4C)CCN3)cc2)no1`, the figure is 8.54; as for `CN(C)C(=O)Nc1ccc([C@H]2CN(c3nc(-c4ccncc4F)cc(=O)n3C)CCO2)cc1`, 7.96.
In the case of `Cn1c(N2CCNC(c3ccc(N4CCNCC4)cc3)C2)nc(-c2ccncc2F)cc1=O` (stereo not given), in assay [2], the inhibition entry was “Active”.
The same measure, in the same setting: as for `Cn1c(N2CCO[C@@H](c3ccc(OC4CCCCC4)cc3)C2)nc(-c2ccncc2F)cc1=O`, the entry is “Active”; as for `Cc1cc(N2CCN(c3ccc(C4CN(c5nc(-c6ccncc6F)cc(=O)n5C)CCO4)cc3)CC2)n(-c2ccccc2)n1` (stereo not given), “Active”.
Consider `COc1ccc(-c2ccc([C@H]3CN(c4nc(-c5ccncc5F)cc(=O)n4C)CCN3)cc2)cc1`, for which the pIC50 in assay [1] is 9.14.
For `Cn1c(N2CCO[C@@H](c3ccc(N)c(F)c3)C2)nc(-c2ccncc2F)cc1=O`, the inhibition entry in assay [2] is “Active”.
`Cn1c(N2CCO[C@@H](c3ccc(NC(=O)C4CCCCC4)cc3)C2)nc(-c2ccncc2F)cc1=O`: the pIC50 in assay [1] is 8.66.
Take `COc1ccc(C#N)cc1[C@H]1CN(c2nc(-c3ccncc3F)cc(=O)n2C)CCO1`: the inhibition result in assay [2] was “Active”.

One may read the pIC50 as the IC50 on a negative log10 scale, so that one unit is a factor of ten.
